Results: US9220703B2, “Composition and method for the protection of articular cartilage” (priority 2014, dated 2015)

Test system: Mycobacterium tuberculosis (adjuvant) induced arthritis
Assay: Adjuvant induced arthritis in rats, histopathology of paw/ankle joint tissue
Assay type: in vivo, Albino Wistar rats
Conditions: for Histopathology of rat paw tissue: articular cartilage / Histopathology of rat paw tissue: granulomas / Histopathology of rat paw tissue: synovial tissue: adjuvant arthritic rats, H&E stain
Protocol: Pathological damage: Adjuvant induced arthritis in animal models
Animals used: Albino Wistar rats of either sex
Weight of the animals: 140-180 grams
Number of animals/group: 5
Methodology: Chronic arthritis was induced in rats by the injection of 0.05 mL of (0.5% w/v) suspension of killed Mycobacterium tuberculosis, homogenized in liquid paraffin in the left hind foot.
Right ankle joints of the animals in the control and treated groups were separated from the hind paw, weighed and immersed in 10% buffered formalin for 24 hours, followed by decalcification in 10% EDTA. The joints were then dehydrated, processed and paraffin (56 C-58 C) blocks were prepared, stained (hematoxylin and eosin) and examined under the compound microscope (Patel P, Patel D, Patel N. Experimental investigation of anti-rheumatoid activity of Pleurotus sajorcaju in adjuvant-induced arthritic rats. Chinese Journal of Natural Medicines, 2012; 10 (4): 0269-0274.

COc1cc(/C=C/C(=O)COC(=O)/C=C/c2ccc(O)c(OC)c2)ccc1O [Calebin A]
Histopathology of rat paw tissue: articular cartilage (Calebin A 10 mg/kg per oral): intact articular cartilage with synovial tissue in the joint | Histopathology of rat paw tissue: granulomas (Calebin A 10 mg/kg per oral): No granulomas were seen | Histopathology of rat paw tissue: synovial tissue (Calebin A 10 mg/kg per oral): congested vascular spaces (Long-Arrows), scattered lymphocytes (Short-Arrow) and intact synovial lining | Histopathology of rat paw tissue: articular cartilage (Calebin A 20 mg/kg per oral): intact articular cartilage with synovial tissue in the joint | Histopathology of rat paw tissue: granulomas (Calebin A 20 mg/kg per oral): No granulomas were seen | Histopathology of rat paw tissue: synovial tissue (Calebin A 20 mg/kg per oral): mild synovial epithelial hyperplasia (Short-Arrow), scattered lymphocytes (Long-Arrow) and intact vascular spaces | Protection of articular cartilage (histopathological studies, overall) (arthritic rats, across doses): dose dependant protection of articular cartilage
